Measured values taken from ChEMBL document CHEMBL4417621, “Methods to identify tas2r modulators” (2013).

Key:
Format in all cases: functional, cell-based
[1] = target: T1, Taste receptor type 2 member 1 (Homo sapiens) (UniProt Q9NYW7); test: Activation of full-length human TAS2R1 expressed in HEK293T/Galpha16-gustducin 44 cells assessed as effect on calcium flux by measuring deltaF/F0 ratio at 50 mM by Fluo-4 dye based FLIPR assay
T1 sequence (whole entry): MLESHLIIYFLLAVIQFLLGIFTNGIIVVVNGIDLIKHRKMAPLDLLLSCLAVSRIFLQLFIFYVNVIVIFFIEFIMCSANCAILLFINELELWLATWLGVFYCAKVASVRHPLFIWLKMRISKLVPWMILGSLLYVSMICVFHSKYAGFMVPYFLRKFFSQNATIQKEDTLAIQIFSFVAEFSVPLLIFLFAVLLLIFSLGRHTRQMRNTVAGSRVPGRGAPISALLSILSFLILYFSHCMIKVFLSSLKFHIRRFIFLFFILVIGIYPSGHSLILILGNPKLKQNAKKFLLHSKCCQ

[2] = target: T2, Taste receptor type 2 member 10 (Homo sapiens) (UniProt Q9NYW0); test: Activation of full-length human TAS2R10 expressed in HEK293T/Galpha16-gustducin 44 cells assessed as effect on calcium flux by measuring deltaF/F0 ratio at 100 mM by Fluo-4 dye based FLIPR assay
T2 sequence (whole entry): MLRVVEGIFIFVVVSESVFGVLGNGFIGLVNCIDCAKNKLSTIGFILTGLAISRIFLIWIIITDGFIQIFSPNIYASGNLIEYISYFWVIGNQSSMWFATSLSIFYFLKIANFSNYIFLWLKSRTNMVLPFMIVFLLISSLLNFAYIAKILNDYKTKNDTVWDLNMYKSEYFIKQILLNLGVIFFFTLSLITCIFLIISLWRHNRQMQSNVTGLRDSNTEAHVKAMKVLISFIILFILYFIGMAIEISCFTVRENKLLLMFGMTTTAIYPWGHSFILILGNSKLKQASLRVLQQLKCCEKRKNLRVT

[3] = target: T3, Taste receptor type 2 member 46 (Homo sapiens) (UniProt P59540); test: Activation of full-length human TAS2R46 expressed in HEK293T/Galpha16-gustducin 44 cells assessed as effect on calcium flux by measuring deltaF/F0 ratio at 100 mM by Fluo-4 dye based FLIPR assay
T3 sequence (whole entry): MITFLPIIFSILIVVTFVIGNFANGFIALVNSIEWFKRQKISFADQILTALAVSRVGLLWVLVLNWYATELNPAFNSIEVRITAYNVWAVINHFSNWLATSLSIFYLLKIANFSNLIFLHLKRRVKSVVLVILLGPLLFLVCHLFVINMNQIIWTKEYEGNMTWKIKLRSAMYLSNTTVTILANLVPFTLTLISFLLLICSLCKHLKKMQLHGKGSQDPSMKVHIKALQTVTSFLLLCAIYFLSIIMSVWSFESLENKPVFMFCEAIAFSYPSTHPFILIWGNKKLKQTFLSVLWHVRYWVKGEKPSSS

[4] = target: T4, Taste receptor type 2 member 31 (Homo sapiens) (UniProt P59538); test: Activation of full-length human TAS2R44 expressed in HEK293T/Galpha16-gustducin 44 cells assessed as effect on calcium flux by measuring deltaF/F0 ratio at 25 mM by Fluo-4 dye based FLIPR assay (reference value: […] +/ - 0.017)
T4 sequence (whole entry): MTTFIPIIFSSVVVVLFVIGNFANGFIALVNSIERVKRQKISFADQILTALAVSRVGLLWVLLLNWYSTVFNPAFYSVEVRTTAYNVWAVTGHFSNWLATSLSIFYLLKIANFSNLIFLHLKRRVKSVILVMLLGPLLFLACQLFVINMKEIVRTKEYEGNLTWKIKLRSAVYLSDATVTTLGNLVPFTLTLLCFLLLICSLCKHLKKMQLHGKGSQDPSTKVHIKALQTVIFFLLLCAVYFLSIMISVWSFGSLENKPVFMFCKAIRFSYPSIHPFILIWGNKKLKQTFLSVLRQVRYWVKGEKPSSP

[5] = target: T4, Taste receptor type 2 member 31 (Homo sapiens); test: Activation of full-length human TAS2R44 expressed in HEK293T/Galpha16-gustducin 44 cells assessed as effect on calcium flux by measuring deltaF/F0 ratio at 0.3906 mM by Fluo-4 dye based FLIPR assay (reference value: […] +/ - 0.002)
[6] = target: T4, Taste receptor type 2 member 31 (Homo sapiens); test: Activation of full-length human TAS2R44 expressed in HEK293T/Galpha16-gustducin 44 cells assessed as effect on calcium flux by measuring deltaF/F0 ratio at 50 mM by Fluo-4 dye based FLIPR assay (reference value: […] +/ - 0.016)
[7] = target: T2, Taste receptor type 2 member 10 (Homo sapiens); test: Activation of full-length human TAS2R10 expressed in HEK293T/Galpha16-gustducin 44 cells assessed as effect on calcium flux by measuring deltaF/F0 ratio at 12.5 mM by Fluo-4 dye based FLIPR assay
[8] = target: T2, Taste receptor type 2 member 10 (Homo sapiens); test: Activation of full-length human TAS2R10 expressed in HEK293T/Galpha16-gustducin 44 cells assessed as effect on calcium flux by measuring deltaF/F0 ratio at 1.5625 mM by Fluo-4 dye based FLIPR assay
[9] = target: T2, Taste receptor type 2 member 10 (Homo sapiens); test: Activation of full-length human TAS2R10 expressed in HEK293T/Galpha16-gustducin 44 cells assessed as effect on calcium flux by measuring deltaF/F0 ratio at 50 mM by Fluo-4 dye based FLIPR assay

## OC[C@H]1O[C@H](O[C@]2(CCl)O[C@H](CCl)[C@@H](O)[C@@H]2O)[C@H](O)[C@@H](O)[C@H]1Cl [SUCRALOSE]
[1]
  Ratio: 0.197
[2]
  Ratio: 0.437
[3]
  Ratio: 0.258
[4]
  Ratio: 0.197
[5]
  Ratio: 0.023
[6]
  Ratio: 0.256
[7]
  Ratio: 0.059
[8]
  Ratio: 0.047
[9]
  Ratio: 0.212
